Reference: US9949979B2, “Use of inhibitors of the activity or function of PI3K” (NOVARTIS AG, priority 2011, dated 2018)

Tested on: isolated human pDCs
Test: P. falciparum nuclear extract-induced IFNα production in human pDCs
Assay type: cell-based
Conditions: for IFNα level: nuclear extract
Method: Human PBMCs were prepared using Buffy Coats as source material from healthy donations (approx. 50 ml obtained from Blutspendezentrum SRK Basel) and processed as indicated above. Fresh PBMCs were resuspended and diluted in RoboSep™ buffer (PBS containing 2% v/v FBS, 1 mM EDTA (Gibco #15575-038) to obtain a final concentration of 50×10^6 PBMCs/ml. Human pDCs (negative selection) were isolated using plasmacytoid DC Enrichment kit (Stemcell, #19062) using an automation RobSep™ station as described according to manufacturer protocols. Typical pDC yields were approx. 0.1% of total PBMCs and with a purity>90%. Isolated pDCs were diluted to 4×10^5 cells/ml and seeded in 384-well plates (#353962; Becton Dickinson AG) to give a final volume of 25 μl (i.e. 1×10^4 cells/well). For stimulation using malaria nuclear extact (see below), pDCs were seeded at a final concentration of 5×10^4 cells/well.
The preparation of the nuclear extract of plasmodium falciparum was performed according to Gowda et al [Gowda et al. “The Nucleosome (Histone-DNA Complex) Is the TLR9-Specific Immunostimulatory Component of Plasmodium falciparum That Activates DCs”, PLoS ONE 2011]. In brief, Plasmodium falciparum 3D7 parasites were cultured in human red blood cell at 2% hematocrit. When the parasite was at late trophozoite and schizont stages, the infected red blood cells (IRBCs) were harvested by centrifugation and the pellets were re-suspended in 20 volumes of 0.1% saponin (m/v) in PBS, pH 7.2. The re-suspension was incubated on ice for 10 minutes and centrifuged at 2,500 g at 4° C. for 15 min. The pellet was re-suspended in the above solution, incubated on ice for 10 min and centrifuged at 2,500 g at 4° C. for 15 min. The parasite pellet thus obtained was washed 3 times with cold PBS, pH 7.2, by centrifugation. Each time 35 ml of cold PBS was used. The pellet obtained after the last centrifugation was suspended in 10 volumes of lysis buffer (20 mM HEPES, pH 7.5, 10 mM KCl, 1 mM EDTA, 1 mM dithiothreitol, 1 mM phenylmethylsulfonyl fluoride (PMSF) and 1% Triton X-100) and incubated on ice for 5 min. The suspension was centrifuged at 5,000 g at 4° C. for 10 min, and nuclear material was washed three times with the lysis buffer to remove membrane components. The nuclear material was re-suspended in PBS, pH 7.2. Insoluble material was subsequently solubilized by using a water-bath sonicator.
Compounds were pre-diluted in 100% v/v DMSO (#41640-100 mL; Sigma-Aldrich), followed by transfer in Media (to achieve a final DMSO concentration of 0.25%). Cells were treated with appropriate compound dilution (5 μl) or vehicle control (5 μl) and incubated for 30 min at 37° C. in a humidified incubator in air with 5% (v/v) CO2. Cells were stimulated with CpG2216 (0.3 μM; #tlrl-hodna; Invivogen), malaria nuclear extract (2.5 μg/ml; see above for preparation) or vehicle control (10 μl/well) and incubated for 20 h. Plates were briefly centrifuged (200×g for 2 min at 22° C.) and supernatant samples (30 μl) removed for quantification of IFNα levels.
For quantification of IFNalpha the human interferon AlphaLISA Kit (#AL264F) from PerkinElmer was used. An antibody mix containing anti-IFNα acceptor beads (5 μg/ml final) and biotinylated antibody anti-IFNα(0.5 nM final) is prepared fresh and dispensed (5 μl) into 384-well Optiplates™ (#6007299; PerkinElmer). Dilution of known IFNα standards (human IFNα B (2b)) were prepared and together with cell supernatants (5 μl) were added to plates above. Plates were briefly centrifuged (pulse at 200 g), covered with adhesive sealing film, vortexed and incubated 1 h at room temperature in the dark. Streptavidin-coated donor beads (20 μg/ml final) was prepared and added to each well (5 μl) in a dark lit area (light sensitive mix). Plates were incubated 30 min at room temperature (Plates must not be centrifuged or covered). […]

`CCC(=O)N1CC[C@H](Nc2ncnc3c2CN(c2cnc(OC)c(C(F)(F)F)c2)CC3)C1` [Example 67, 1-{(S)-3-[6-(6-Methoxy-5-trifluoromethyl-pyridin-3-yl)-5,6,7,8-tetrahydro-pyrido[4,3-d]pyrimidin-4-ylamino]-pyrrolidin-1-yl}-propan-1-one] was tested. Which inhibition at 0.01 µM (compound 0.01 μM, read-out: % inh. of IFNα by nuclear extract) did it give?
The inhibition at 0.01 µM was 25%.

What about the inhibition at 0.1 µM (compound 0.1 μM, read-out: % inh. of IFNα by nuclear extract) of the same compound?
The inhibition at 0.1 µM was 64%.

What about the inhibition at 1 µM (compound 1 μM, read-out: % inh. of IFNα by nuclear extract) of the same compound?
Its inhibition at 1 µM is 77%.

What about the “IFNα level” value (compound 0.01 μM) of the same compound?
The value was 4084 pg/mL.

And the “IFNα level” value (compound 0.1 μM)?
Its value is 2110 pg/mL.

And the “IFNα level” value (compound 1 μM)?
Its value is 1483 pg/mL.
